Patent publication US9901097B2, “Agricultural and horticultural fungicidal composition” (Nippon Soda Co., Ltd., priority 2011, dated 2018)
Like-named read-outs stand apart in the source and are kept apart here.

What was measured:
[1] = test system: Botrytis cinerea; test: Sterilization test (growth inhibition of Botrytis cinerea in potato dextrose medium, 96-well microplate, turbidity 405 nm); type: cell-based; conditions: Botrytis cinerea, read-out: Growth inhibition rate; for inhibition at 0.1 ppm: drug I alone 0.1 ppm; for inhibition at 10 ppm: drug II alone 10 ppm
Description: The solutions thus obtained were mixed to prepare fungicidal compositions.
Conidia of Botrytis cinerea were added to and dispersed in a potato dextrose culture medium. A fungicidal composition was added thereto and mixed. This was dispensed in a 96-well microplate and cultured at 20° C. for 3 days in a dark setting. Then, the turbidity was measured at a wavelength of 405 nm in a microplate reader. From comparison with the measured value of turbidity in the case of non-treatment (without the addition of the fungicidal composition), the growth inhibition rate of Botrytis cinerea (%) was calculated. The test was carried out in duplicate. Further, the expected value of the growth inhibition was calculated based on Colby's equation.
(§1) In addition, the Colby's equation is E=M+N−MN/100. Here, E is the expected value of a growth inhibition rate (%), M is the growth inhibition rate (%) calculated from the measurement with the use of the drug I alone, and N is the growth inhibition rate (%) calculated from the measurement with the use of the drug II alone. Additionally, in Tables, the expected values with the use of the drug alone were not shown, because they were the same as the values calculated from the measurement.
At the concentrations shown in Tables 6 to 8, the drug I and the drug II were dissolved separately in dimethyl sulfoxide. The obtained solution was mixed to prepare a fungicidal composition.
Using the same methods as in Example 1 and Comparative Example 1, the sterilization test was carried out. Additionally, in Tables, the expected values with the use of the drug alone were not shown, because they were the same as the values calculated from the measurement.

[2] = test system: cucumber powdery mildew disease pathogens (Sphaerotheca fuliginea); test: Control test for cucumber powdery mildew disease (sprayed cucumber seedlings); type: in vivo; conditions: held 7 days after inoculation
Description: The drug I and the drug II were dissolved in an organic solvent and a surfactant, and the prepared mixed emulsifiable concentrate was diluted with water to a predetermined concentration, and sprayed to cucumber seedlings that had been cultivated in unglazed pots (cultivar “Sagamihanjiro”, cotyledon stage). Additionally, in Tables, the symbol A indicating the drug I represents a nitrogen-containing heterocyclic compound represented by the formula (A), the symbol B indicating the drug I represents a nitrogen-containing heterocyclic compound represented by the formula (B), and the symbol C indicating the drug I represents a nitrogen-containing heterocyclic compound represented by the formula (C). Further, in Tables, the number indicating the drug II represents each of the compounds described in the numbers described above. Additionally, “-” in Tables represents that the drug was not used.
After air-drying at room temperature, the conidia of cucumber powdery mildew disease pathogens (Sphaerotheca fuliginea) was inoculated by shaking off and held in a warm room for 7 days. By investigation on the state of lesion appearance in leaves with comparison with a non-treatment case, the controlling effect was determined. The test was carried out in duplicate. In addition, the expected value of the controlling effect was calculated based on Colby's equation.
(§2) At the same time, in Comparative Example, in the case of using the drug I only and the case of using the drug II only, the test was carried out by the same method.
as §1, with “Additionally,” for “In addition,”, “the controlling effect” for “a growth inhibition rate”, “controlling effect” for “growth inhibition rate”, “were” for “were not shown, because they were”, “measurement, and were thus not shown.” for “measurement.”

[3] = test system: cucumber gray mold disease pathogens (Botrytis cinerea); test: Control test for cucumber gray mold disease (sprayed cucumber seedlings); type: in vivo; conditions: Botrytis cinerea; for pest or weed control at 10 ppm: drug I alone 10 ppm; for pest or weed control at 400 ppm: drug II alone 400 ppm; for pest or weed control at 100 ppm: drug II alone 100 ppm
Description: The drug I and the drug II were dissolved in an organic solvent and a surfactant, and the prepared mixed emulsifiable concentrate was diluted with water to a predetermined concentration, and sprayed to cucumber seedlings that had been cultivated in unglazed pots (cultivar “Sagamihanjiro” cotyledon stage). Additionally, in Tables, the symbol A indicating the drug I represents a nitrogen-containing heterocyclic compound represented by the formula (A), the symbol B indicating the drug I represents a nitrogen-containing heterocyclic compound represented by the formula (B), and the symbol C indicating the drug I represents a nitrogen-containing heterocyclic compound represented by the formula (C). Further, the number indicating the drug II represents each of the compounds described in the numbers described above. Additionally, “-” in Tables represents that the drug was not used.
After air-drying at room temperature, a suspension of the conidia of cucumber gray mold disease pathogens (Botrytis cinerea) was inoculated by dropwise addition and held in a dark room at 20° C. with a high humidity for 3, 4, or 5 days. By investigation on the state of lesion appearance in leaves with comparison with a non-treatment case, the controlling effect was determined. The test was carried out in duplicate. In addition, the expected value of the controlling effect was calculated based on Colby's equation.
as §2
as §1, with “Additionally,” for “In addition,”, “the controlling effect” for “a growth inhibition rate”, “controlling effect” for “growth inhibition rate”, “were” for “were not shown, because they were”, “measurement, and were thus not shown.” for “measurement.”

[4] = 72 h, read-out: Control effect (%), 3 days after inoculation
[5] = 96 h, read-out: Control effect (%), 4 days after inoculation
[6] = 120 h, read-out: Control effect (%), 5 days after inoculation
[7] = 120 h, read-out: Control effect, Table 10, 5 days after inoculation
[8] = 96 h, read-out: Control effect, Table 9, 4 days after inoculation
[9] = 96 h, read-out: Control effect, Table 11, 4 days after inoculation

## CC1(C)CN=C(c2cnc3ccccc3c2)c2cccc(F)c2O1 [A]
[1]; Example 1 (Tables 1-5)
  inhibition at 0.1 ppm: 19%
[1]; Example 2 (Tables 6-8)
  inhibition at 0.1 ppm: 20%
[2]; drug I alone 10 ppm
  Control effect (%): 40%
[3]; [4]
  pest or weed control at 10 ppm: 52%
[3]; [5]
  pest or weed control at 10 ppm: 37%
[3]; [6]
  pest or weed control at 10 ppm: 60%
[3]; [7]
  pest or weed control at 10 ppm: 43%

## Cc1nc2c(F)cccc2cc1Oc1cccc(F)c1C(C)(C)O [B]
[1]; Example 1 (Tables 1-5)
  inhibition at 0.1 ppm: 19%
[1]; Example 2 (Tables 6-8)
  inhibition at 0.1 ppm: 18%
[2]; drug I alone 10 ppm
  Control effect (%): 60%
[3]; [4]
  pest or weed control at 10 ppm: 54%
[3]; [5]
  pest or weed control at 10 ppm: 37%
[3]; [8]
  pest or weed control at 10 ppm: 50%
[3]; [9]
  pest or weed control at 10 ppm: 78%
[3]; [6]
  pest or weed control at 10 ppm: 64%
[3]; [7]
  pest or weed control at 10 ppm: 44%

## Cc1nc2c(F)c(F)ccc2cc1Oc1cccc(F)c1C(C)(C)O [C]
[1]; Example 1 (Tables 1-5)
  inhibition at 0.1 ppm: 19%
[1]; Example 2 (Tables 6-8)
  inhibition at 0.1 ppm: 21%
[2]; drug I alone 10 ppm
  Control effect (%): 30%
[3]; [4]
  pest or weed control at 10 ppm: 54%
[3]; [5]
  pest or weed control at 10 ppm: 19%
[3]; [8]
  pest or weed control at 10 ppm: 51%
[3]; [9]
  pest or weed control at 10 ppm: 76%
[3]; [6]
  pest or weed control at 10 ppm: 67%
[3]; [7]
  pest or weed control at 10 ppm: 47%

## C[C@@H]1[C@@H](c2ccc(Cl)cc2)SC(=O)N1C(=O)NC1CCCCC1 [Drug 43, Hexythiazox]
[1]; Example 2 (Tables 6-8)
  inhibition at 10 ppm: 0%
[3]; [9]
  pest or weed control at 400 ppm: 2%
[3]; [6]
  pest or weed control at 100 ppm: 0%
  pest or weed control at 400 ppm: 0%

## CCc1ccc(C(=O)NN(C(=O)c2cc(C)cc(C)c2)C(C)(C)C)cc1 [Drug 44, Tebufenozide]
[1]; Example 2 (Tables 6-8)
  inhibition at 10 ppm: 0%
[3]; 96 h, Table 11, 4 days after inoculation, read-out: Control effect
  pest or weed control at 400 ppm: 22%
[3]; 120 h, 5 days after inoculation, read-out: Control effect (%)
  pest or weed control at 400 ppm: 0%

## CCCCc1c(C)nc(NCC)nc1OS(=O)(=O)N(C)C [Drug 60, Bupirimate]
[2]; drug II alone 6.3 ppm
  Control effect (%): 10%
[2]; drug II alone 25 ppm
  Control effect (%): 50%
[3]; 72 h, read-out: Control effect (%), 3 days after inoculation, drug II alone 25 ppm
  pest or weed control at 25 ppm: 0%

## Cc1cc(C(F)(F)F)nn1CC(=O)N1CCC(c2nc(C3=NOC(c4c(F)cccc4F)C3)cs2)CC1 (centres unmarked) [Drug 61]
[2]; drug II alone 6.3 ppm
  Control effect (%): 0%
[3]; 72 h, 3 days after inoculation, drug II alone 6.3 ppm, read-out: Control effect (%)
  pest or weed control at 6.3 ppm: 0%
[3]; 72 h, 3 days after inoculation, read-out: Control effect (%)
  pest or weed control at 100 ppm: 0%
